Measurements as given in ChEMBL document CHEMBL2407054, “Synthesis and antimicrobial activity of imidazole and pyridine appended cholestane-based conjugates” (2013).
Converted amounts (≈) assume the structure as drawn.

How the values were obtained:
[1] = tested on: Staphylococcus aureus; test: Antibacterial activity against Staphylococcus aureus 241 by M07-A9 CLSI method; assay type: functional
[2] = tested on: Klebsiella aerogenes; test: Antibacterial activity against Klebsiella aerogenes (SHV-1) 1976E by M07-A9 CLSI method; assay type: functional
[3] = tested on: Pseudomonas aeruginosa; test: Antibacterial activity against Pseudomonas aeruginosa 6065Y by M07-A9 CLSI method; assay type: functional
[4] = tested on: Salmonella typhimurium; test: Antibacterial activity against Salmonella typhimurium ATCC 13311 by M07-A9 CLSI method; assay type: functional, Salmonella enterica subsp. enterica serovar Typhimurium; settings: Salmonella enterica
[5] = tested on: Bacillus licheniformis; test: Antibacterial activity against Bacillus licheniformis EMR by M07-A9 CLSI method; assay type: functional
[6] = tested on: Proteus vulgaris; test: Antibacterial activity against Proteus vulgaris 6059 by M07-A9 CLSI method; assay type: functional
[7] = tested on: Klebsiella pneumoniae; test: Antibacterial activity against Klebsiella pneumoniae 2011E by M07-A9 CLSI method; assay type: functional
[8] = tested on: Bacillus subtilis; test: Antibacterial activity against Bacillus subtilis ATCC 6633 by M07-A9 CLSI method; assay type: functional
[9] = tested on: Escherichia coli; test: Antibacterial activity against Escherichia coli ATCC 25922 by M07-A9 CLSI method; assay type: functional
[10] = tested on: Staphylococcus epidermidis; test: Antibacterial activity against Staphylococcus epidermidis 887E by M07-A9 CLSI method; assay type: functional
[11] = tested on: Staphylococcus aureus; test: Antibacterial activity against Staphylococcus aureus Giorgio by M07-A9 CLSI method; assay type: functional
[12] = tested on: Staphylococcus aureus; test: Antibacterial activity against Staphylococcus aureus ATCC 6538P by M07-A9 CLSI method; assay type: functional
[13] = tested on: Enterococcus faecalis; test: Antibacterial activity against Enterococcus faecalis ATCC 29212 by M07-A9 CLSI method; assay type: functional
[14] = tested on: Staphylococcus aureus; test: Antibacterial activity against Staphylococcus aureus 77 by M07-A9 CLSI method; assay type: functional
[15] = tested on: Bacillus cereus; test: Antibacterial activity against Bacillus cereus ATCC 27348 by M07-A9 CLSI method; assay type: functional
[16] = tested on: Kocuria rhizophila; test: Antibacterial activity against Micrococcus luteus ATCC 9341 by M07-A9 CLSI method; assay type: functional
[17] = tested on: Staphylococcus aureus; test: Antibacterial activity against Staphylococcus aureus ATCC 25923 by M07-A9 CLSI method; assay type: functional

SMILES	MIC [1] [µg/mL]	MIC [2] [µg/mL]	MIC [3] [µg/mL]	MIC [4] [µg/mL]	MIC [5] [µg/mL]	MIC [6] [µg/mL]	MIC [7] [µg/mL]	MIC [8] [µg/mL]	MIC [9] [µg/mL]	MIC [10] [µg/mL]	MIC [11] [µg/mL]	MIC [12] [µg/mL]	MIC [13] [µg/mL]	MIC [14] [µg/mL]	MIC [15] [µg/mL]	MIC [16] [µg/mL]	MIC [17] [µg/mL]
CC(C)CCC[C@@H](C)[C@H]1CC[C@H]2[C@@H]3C(=O)C[C@H]4C[C@H](NCCc5ccccn5)CC[C@]4(C)[C@H]3CC[C@]12C	> 32	> 32	> 32	> 32	32 (≈ 63.1 µM)	> 32	> 32	32 (≈ 63.1 µM)	> 32	16 (≈ 31.6 µM)	8 (≈ 15.8 µM)	8 (≈ 15.8 µM)	16 (≈ 31.6 µM)	32 (≈ 63.1 µM)	> 32	32 (≈ 63.1 µM)	8 (≈ 15.8 µM)
CC(C)CCC[C@@H](C)[C@H]1CC[C@H]2[C@@H]3[C@H](NCCc4cnc[nH]4)C[C@H]4C[C@H](NCCc5cnc[nH]5)CC[C@]4(C)[C@H]3CC[C@]12C [3ALPHA,7ALPHA-BIS[2-(5-IMIDAZOLYL)ETHYL]AMINO-5ALPHA-CHOLESTANE]	8 (≈ 13.5 µM)	> 32	> 32	> 32	> 32	> 32	> 32	> 32	> 32	8 (≈ 13.5 µM)	8 (≈ 13.5 µM)	4 (≈ 6.77 µM)	8 (≈ 13.5 µM)	8 (≈ 13.5 µM)	32 (≈ 54.2 µM)	16 (≈ 27.1 µM)	8 (≈ 13.5 µM)
CC(C)CCC[C@@H](C)[C@H]1CC[C@H]2[C@@H]3[C@H](NCCCn4ccnc4)C[C@H]4C[C@H](NCCCn5ccnc5)CC[C@]4(C)[C@H]3CC[C@]12C	4 (≈ 6.46 µM)	> 32	> 32	> 32	4 (≈ 6.46 µM)	> 32	> 32	4 (≈ 6.46 µM)	> 32	4 (≈ 6.46 µM)	4 (≈ 6.46 µM)	2 (≈ 3.23 µM)	4 (≈ 6.46 µM)	4 (≈ 6.46 µM)	8 (≈ 12.9 µM)	4 (≈ 6.46 µM)	2 (≈ 3.23 µM)
CC(C)CCC[C@@H](C)[C@H]1CC[C@H]2[C@@H]3[C@H](NCCc4ccccn4)C[C@H]4C[C@H](NCCc5ccccn5)CC[C@]4(C)[C@H]3CC[C@]12C	8 (≈ 13.1 µM)	> 32	> 32	> 32	8 (≈ 13.1 µM)	> 32	> 32	8 (≈ 13.1 µM)	> 32	8 (≈ 13.1 µM)	8 (≈ 13.1 µM)	8 (≈ 13.1 µM)	16 (≈ 26.1 µM)	16 (≈ 26.1 µM)	32 (≈ 52.2 µM)	8 (≈ 13.1 µM)	8 (≈ 13.1 µM)
Cc1onc(-c2ccccc2)c1C(=O)N[C@@H]1C(=O)N2[C@@H]1SC(C)(C)[C@@H]2C(=O)O [OXACILLIN]	> 32	> 32	> 32	> 32	> 32	> 32	> 32	16 (≈ 39.9 µM)	> 32	> 32	0.5 (≈ 1.25 µM)	0.25 (≈ 0.623 µM)	32 (≈ 79.7 µM)	4 (≈ 9.96 µM)	> 32	0.03 (≈ 0.0747 µM)	0.25 (≈ 0.623 µM)
CN[C@H](CC(C)C)C(=O)N[C@H]1C(=O)N[C@@H](CC(N)=O)C(=O)N[C@H]2C(=O)N[C@H]3C(=O)N[C@H](C(=O)N[C@H](C(=O)O)c4cc(O)cc(O)c4-c4cc3ccc4O)[C@H](O)c3ccc(c(Cl)c3)Oc3cc2cc(c3O[C@@H]2O[C@H](CO)[C@@H](O)[C@H](O)[C@H]2O[C@H]2C[C@](C)(N)[C@H](O)[C@H](C)O2)Oc2ccc(cc2Cl)[C@H]1O [VANCOMYCIN]	–	> 32	> 32	> 32	> 32	> 32	> 32	2 (≈ 1.38 µM)	> 32	–	–	–	2 (≈ 1.38 µM)	–	> 32	1 (≈ 0.69 µM)	–
CC(C)CCC[C@@H](C)[C@H]1CC[C@H]2[C@@H]3C(=O)C[C@H]4C[C@H](NCc5ccccn5)CC[C@]4(C)[C@H]3CC[C@]12C	32 (≈ 64.9 µM)	> 32	> 32	> 32	32 (≈ 64.9 µM)	> 32	> 32	4 (≈ 8.12 µM)	> 32	4 (≈ 8.12 µM)	4 (≈ 8.12 µM)	2 (≈ 4.06 µM)	8 (≈ 16.2 µM)	32 (≈ 64.9 µM)	16 (≈ 32.5 µM)	8 (≈ 16.2 µM)	4 (≈ 8.12 µM)

Further compounds by falling MIC [1], results first:

MIC [1] [µg/mL]	MIC [2] [µg/mL]	MIC [3] [µg/mL]	MIC [4] [µg/mL]	MIC [5] [µg/mL]	MIC [6] [µg/mL]	MIC [7] [µg/mL]	MIC [8] [µg/mL]	MIC [9] [µg/mL]	MIC [10] [µg/mL]	MIC [11] [µg/mL]	MIC [12] [µg/mL]	MIC [13] [µg/mL]	MIC [14] [µg/mL]	MIC [15] [µg/mL]	MIC [16] [µg/mL]	MIC [17] [µg/mL]	SMILES
32 (≈ 64.5 µM)	> 32	> 32	> 32	32 (≈ 64.5 µM)	> 32	> 32	32 (≈ 64.5 µM)	> 32	16 (≈ 32.3 µM)	16 (≈ 32.3 µM)	8 (≈ 16.1 µM)	16 (≈ 32.3 µM)	16 (≈ 32.3 µM)	32 (≈ 64.5 µM)	16 (≈ 32.3 µM)	16 (≈ 32.3 µM)	CC(C)CCC[C@@H](C)[C@H]1CC[C@H]2[C@@H]3C(=O)C[C@H]4C[C@H](NCCc5cnc[nH]5)CC[C@]4(C)[C@H]3CC[C@]12C
32 (≈ 62.8 µM)	> 32	> 32	> 32	32 (≈ 62.8 µM)	> 32	> 32	8 (≈ 15.7 µM)	> 32	16 (≈ 31.4 µM)	8 (≈ 15.7 µM)	8 (≈ 15.7 µM)	32 (≈ 62.8 µM)	8 (≈ 15.7 µM)	16 (≈ 31.4 µM)	8 (≈ 15.7 µM)	8 (≈ 15.7 µM)	CC(C)CCC[C@@H](C)[C@H]1CC[C@H]2[C@@H]3C(=O)C[C@H]4C[C@H](NCCCn5ccnc5)CC[C@]4(C)[C@H]3CC[C@]12C
16 (≈ 32.3 µM)	> 32	> 32	> 32	32 (≈ 64.5 µM)	> 32	> 32	32 (≈ 64.5 µM)	> 32	16 (≈ 32.3 µM)	8 (≈ 16.1 µM)	8 (≈ 16.1 µM)	8 (≈ 16.1 µM)	> 32	32 (≈ 64.5 µM)	8 (≈ 16.1 µM)	8 (≈ 16.1 µM)	CC(C)CCC[C@@H](C)[C@H]1CC[C@H]2[C@@H]3C(=O)C[C@H]4C[C@H](NCCn5ccnc5)CC[C@]4(C)[C@H]3CC[C@]12C
16 (≈ 27.1 µM)	> 32	> 32	> 32	32 (≈ 54.2 µM)	> 32	> 32	8 (≈ 13.5 µM)	> 32	16 (≈ 27.1 µM)	4 (≈ 6.77 µM)	4 (≈ 6.77 µM)	16 (≈ 27.1 µM)	4 (≈ 6.77 µM)	16 (≈ 27.1 µM)	4 (≈ 6.77 µM)	8 (≈ 13.5 µM)	CC(C)CCC[C@@H](C)[C@H]1CC[C@H]2[C@@H]3[C@H](NCCn4ccnc4)C[C@H]4C[C@H](NCCn5ccnc5)CC[C@]4(C)[C@H]3CC[C@]12C
2 (≈ 3.42 µM)	> 32	> 32	> 32	2 (≈ 3.42 µM)	> 32	> 32	2 (≈ 3.42 µM)	> 32	1 (≈ 1.71 µM)	2 (≈ 3.42 µM)	2 (≈ 3.42 µM)	4 (≈ 6.84 µM)	2 (≈ 3.42 µM)	8 (≈ 13.7 µM)	2 (≈ 3.42 µM)	2 (≈ 3.42 µM)	CC(C)CCC[C@@H](C)[C@H]1CC[C@H]2[C@@H]3[C@H](NCc4ccccn4)C[C@H]4C[C@H](NCc5ccccn5)CC[C@]4(C)[C@H]3CC[C@]12C
